Assay: PN001/Part I: safety and tolerability
Assay type: in vivo, human
Excerpt: Safety was monitored throughout by adverse events, vital signs, and repeated clinical and laboratory evaluations. […] All adverse events were mild or moderate and severity and transient.

CC(C)c1ccc(CC(=O)N[C@H](C)c2ccc(OCC(F)(F)F)cn2)cc1 [CX-8998]
Abnormal physical sensation (1 mg): 0 n (%) | At least 1 adverse event (1 mg): 2 (33.3) n (%) | Dizziness (1 mg): 0 n (%) | Drowsiness (1 mg): 0 n (%) | Elevated mood (1 mg): 0 n (%) | Euphoric mood (1 mg): 0 n (%) | Eye Disorders (1 mg): 0 n (%) | Fatigue (1 mg): 0 n (%) | Feeling abnormal (1 mg): 0 n (%) | Floating feeling (1 mg): 0 n (%) | Gastro-intestinal Disorders (1 mg): 0 n (%) | Hangover effect (1 mg): 0 n (%) | Headache (1 mg): 2 (33.3) n (%) | Indifference (1 mg): 0 n (%) | Injury, Poisoning and Procedural Complications (1 mg): 0 n (%) | Insomnia (1 mg): 0 n (%) | Intoxication (1 mg): 0 n (%) | Irritability (1 mg): 0 n (%) | Lethargy (1 mg): 0 n (%) | Nervous System Disorders (1 mg): 2 (33.3) n (%) | Paraesthesia (1 mg): 0 n (%) | Paraesthesia oral (1 mg): 0 n (%) | Paraesthesia tongue (1 mg): 0 n (%) | Psychiatric Disorders (1 mg): 0 n (%) | Racing thoughts (1 mg): 0 n (%) | Relaxed (1 mg): 0 n (%) | Sensory disturbance (1 mg): 0 n (%) | Vision blurred (1 mg): 0 n (%) | Visual disturbance (1 mg): 0 n (%) | Vivid dreams (1 mg): 0 n (%) | Abnormal physical sensation (1 mg fed): 0 n (%) | At least 1 adverse event (1 mg fed): 0 n (%) | Dizziness (1 mg fed): 0 n (%) | Drowsiness (1 mg fed): 0 n (%) | Elevated mood (1 mg fed): 0 n (%) | Euphoric mood (1 mg fed): 0 n (%) | Eye Disorders (1 mg fed): 0 n (%) | Fatigue (1 mg fed): 0 n (%) | Feeling abnormal (1 mg fed): 0 n (%) | Floating feeling (1 mg fed): 0 n (%) | Gastro-intestinal Disorders (1 mg fed): 0 n (%) | Hangover effect (1 mg fed): 0 n (%) | Headache (1 mg fed): 0 n (%) | Indifference (1 mg fed): 0 n (%) | Injury, Poisoning and Procedural Complications (1 mg fed): 0 n (%) | Insomnia (1 mg fed): 0 n (%) | Intoxication (1 mg fed): 0 n (%) | Irritability (1 mg fed): 0 n (%) | Lethargy (1 mg fed): 0 n (%) | Nervous System Disorders (1 mg fed): 0 n (%) | Paraesthesia (1 mg fed): 0 n (%) | Paraesthesia oral (1 mg fed): 0 n (%) | Paraesthesia tongue (1 mg fed): 0 n (%) | Psychiatric Disorders (1 mg fed): 0 n (%) | Racing thoughts (1 mg fed): 0 n (%) | Relaxed (1 mg fed): 0 n (%) | Sensory disturbance (1 mg fed): 0 n (%) | Vision blurred (1 mg fed): 0 n (%) | Visual disturbance (1 mg fed): 0 n (%) | Vivid dreams (1 mg fed): 0 n (%) | Abnormal physical sensation (3 mg): 0 n (%) | At least 1 adverse event (3 mg): 3 (50.0) n (%) | Dizziness (3 mg): 0 n (%) | Drowsiness (3 mg): 0 n (%) | Elevated mood (3 mg): 0 n (%) | Euphoric mood (3 mg): 1 (16.7) n (%) | Eye Disorders (3 mg): 0 n (%) | Fatigue (3 mg): 0 n (%) | Feeling abnormal (3 mg): 0 n (%) | Floating feeling (3 mg): 0 n (%) | Gastro-intestinal Disorders (3 mg): 0 n (%) | Hangover effect (3 mg): 0 n (%) | Headache (3 mg): 0 n (%) | Indifference (3 mg): 0 n (%) | Injury, Poisoning and Procedural Complications (3 mg): 0 n (%) | Insomnia (3 mg): 0 n (%) | Intoxication (3 mg): 0 n (%) | Irritability (3 mg): 0 n (%) | Lethargy (3 mg): 0 n (%) | Nervous System Disorders (3 mg): 0 n (%) | Paraesthesia (3 mg): 0 n (%) | Paraesthesia oral (3 mg): 0 n (%) | Paraesthesia tongue (3 mg): 0 n (%) | Psychiatric Disorders (3 mg): 1 (16.7) n (%) | Racing thoughts (3 mg): 0 n (%) | Relaxed (3 mg): 0 n (%) | Sensory disturbance (3 mg): 0 n (%) | Vision blurred (3 mg): 0 n (%) | Visual disturbance (3 mg): 0 n (%) | Vivid dreams (3 mg): 0 n (%) | Abnormal physical sensation (4 mg): 0 n (%) | At least 1 adverse event (4 mg): 1 (16.7) n (%) | Dizziness (4 mg): 0 n (%) | Drowsiness (4 mg): 0 n (%) | Elevated mood (4 mg): 0 n (%) | Euphoric mood (4 mg): 0 n (%) | Eye Disorders (4 mg): 1 (16.7) n (%) | Fatigue (4 mg): 0 n (%) | Feeling abnormal (4 mg): 1 (16.7) n (%) | Floating feeling (4 mg): 0 n (%) | Gastro-intestinal Disorders (4 mg): 0 n (%) | Hangover effect (4 mg): 0 n (%) | Headache (4 mg): 0 n (%) | Indifference (4 mg): 0 n (%) | Injury, Poisoning and Procedural Complications (4 mg): 0 n (%) | Insomnia (4 mg): 0 n (%) | Intoxication (4 mg): 0 n (%) | Irritability (4 mg): 0 n (%) | Lethargy (4 mg): 0 n (%) | Nervous System Disorders (4 mg): 0 n (%) | Paraesthesia (4 mg): 0 n (%) | Paraesthesia oral (4 mg): 0 n (%) | Paraesthesia tongue (4 mg): 0 n (%) | Psychiatric Disorders (4 mg): 0 n (%) | Racing thoughts (4 mg): 0 n (%) | Relaxed (4 mg): 0 n (%) | Sensory disturbance (4 mg): 0 n (%) | Vision blurred (4 mg): 0 n (%) | Visual disturbance (4 mg): 1 (16.7) n (%) | Vivid dreams (4 mg): 0 n (%) | Abnormal physical sensation (8 mg): 0 n (%) | At least 1 adverse event (8 mg): 1 (16.7) n (%) | Dizziness (8 mg): 0 n (%) | Drowsiness (8 mg): 0 n (%) | Elevated mood (8 mg): 0 n (%) | Euphoric mood (8 mg): 0 n (%) | Eye Disorders (8 mg): 1 (16.7) n (%) | Fatigue (8 mg): 0 n (%) | Feeling abnormal (8 mg): 0 n (%) | Floating feeling (8 mg): 0 n (%) | Gastro-intestinal Disorders (8 mg): 1 (16.7) n (%) | Hangover effect (8 mg): 0 n (%) | Headache (8 mg): 0 n (%) | Indifference (8 mg): 0 n (%) | Injury, Poisoning and Procedural Complications (8 mg): 0 n (%) | Insomnia (8 mg): 0 n (%) | Intoxication (8 mg): 0 n (%) | Irritability (8 mg): 0 n (%) | Lethargy (8 mg): 0 n (%) | Nervous System Disorders (8 mg): 1 (16.7) n (%) | Paraesthesia (8 mg): 0 n (%) | Paraesthesia oral (8 mg): 1 (16.7) n (%) | Paraesthesia tongue (8 mg): 0 n (%) | Psychiatric Disorders (8 mg): 0 n (%) | Racing thoughts (8 mg): 0 n (%) | Relaxed (8 mg): 0 n (%) | Sensory disturbance (8 mg): 0 n (%) | Vision blurred (8 mg): 0 n (%) | Visual disturbance (8 mg): 1 (16.7) n (%) | Vivid dreams (8 mg): 0 n (%) | Abnormal physical sensation (8 mg evening): 1 (16.7) n (%) | At least 1 adverse event (8 mg evening): 5 (83.3) n (%) | Dizziness (8 mg evening): 0 n (%) | Drowsiness (8 mg evening): 1 (16.7) n (%) | Elevated mood (8 mg evening): 2 n (%) | Euphoric mood (8 mg evening): 2 n (%) | Eye Disorders (8 mg evening): 1 (16.7) n (%) | Fatigue (8 mg evening): 0 n (%) | Feeling abnormal (8 mg evening): 1 (16.7) n (%) | Floating feeling (8 mg evening): 0 n (%) | Gastro-intestinal Disorders (8 mg evening): 0 n (%) | Hangover effect (8 mg evening): 0 n (%) | Headache (8 mg evening): 1 (16.7) n (%) | Indifference (8 mg evening): 0 n (%) | Injury, Poisoning and Procedural Complications (8 mg evening): 0 n (%) | Insomnia (8 mg evening): 0 n (%) | Intoxication (8 mg evening): 0 n (%) | Irritability (8 mg evening): 0 n (%) | Lethargy (8 mg evening): 0 n (%) | Nervous System Disorders (8 mg evening): 3 (50.0) n (%) | Paraesthesia (8 mg evening): 1 (16.7) n (%) | Paraesthesia oral (8 mg evening): 0 n (%) | Paraesthesia tongue (8 mg evening): 0 n (%) | Psychiatric Disorders (8 mg evening): 4 n (%) | Racing thoughts (8 mg evening): 1 (16.7) n (%) | Relaxed (8 mg evening): 0 n (%) | Sensory disturbance (8 mg evening): 0 n (%) | Vision blurred (8 mg evening): 1 (16.7) n (%) | Visual disturbance (8 mg evening): 0 n (%) | Vivid dreams (8 mg evening): 1 (16.7) n (%)

Reference: US11311522B1 (Cavion, Inc., priority 2018, dated 2022)
